Laboratory results as given in patent US8461328B2, “Tricyclic heterocyclic compounds, compositions and methods of use thereof” (Genentech, Inc., priority 2010, dated 2013).

Columns and labels:
Type in all cases: biochemical
JAK1 = biological target: T1, JAK1 (Homo sapiens, UniProt P23458); assay: JAK1 inhibition (Table 4); conditions: read-out: JAK1 Ki
T1 construct: made in house; host or cells: SF9 insect cells (baculovirus)

JAK2 = biological target: T2, JAK2 (Homo sapiens, UniProt O60674); assay: JAK2 inhibition (Table 4); conditions: read-out: JAK2 Ki
T2 construct: made in house; host or cells: SF9 insect cells (baculovirus)

JAK3 = biological target: T3, JAK3 (Homo sapiens, UniProt P52333); assay: JAK3 inhibition (Table 4); conditions: read-out: JAK3 Ki
T3 construct: made in house; host or cells: SF9 insect cells (baculovirus)

TYK2 = biological target: T4, TYK2 (Homo sapiens, UniProt P29597); assay: TYK2 inhibition (Table 4)
T4 construct: made in house; host or cells: SF9 insect cells (baculovirus)
T4 sequence (P29597 873-1187): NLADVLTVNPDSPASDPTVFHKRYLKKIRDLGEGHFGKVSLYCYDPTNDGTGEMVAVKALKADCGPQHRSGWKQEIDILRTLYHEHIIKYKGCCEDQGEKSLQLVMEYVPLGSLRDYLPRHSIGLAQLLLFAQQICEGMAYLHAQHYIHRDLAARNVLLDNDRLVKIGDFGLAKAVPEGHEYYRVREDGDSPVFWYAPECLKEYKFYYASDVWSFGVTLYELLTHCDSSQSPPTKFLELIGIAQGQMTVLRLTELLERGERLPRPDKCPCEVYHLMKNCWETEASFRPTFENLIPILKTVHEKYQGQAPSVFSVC

T1 sequence (P23458 852-1154): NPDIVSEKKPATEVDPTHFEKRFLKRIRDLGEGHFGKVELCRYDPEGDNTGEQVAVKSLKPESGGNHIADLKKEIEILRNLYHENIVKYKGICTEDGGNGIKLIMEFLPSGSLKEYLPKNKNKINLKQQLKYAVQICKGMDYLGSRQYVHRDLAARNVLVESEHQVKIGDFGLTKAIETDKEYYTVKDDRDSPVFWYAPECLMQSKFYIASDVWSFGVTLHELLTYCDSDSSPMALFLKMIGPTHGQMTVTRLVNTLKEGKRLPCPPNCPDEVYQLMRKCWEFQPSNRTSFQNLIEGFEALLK
T2 sequence (O60674 812-1132): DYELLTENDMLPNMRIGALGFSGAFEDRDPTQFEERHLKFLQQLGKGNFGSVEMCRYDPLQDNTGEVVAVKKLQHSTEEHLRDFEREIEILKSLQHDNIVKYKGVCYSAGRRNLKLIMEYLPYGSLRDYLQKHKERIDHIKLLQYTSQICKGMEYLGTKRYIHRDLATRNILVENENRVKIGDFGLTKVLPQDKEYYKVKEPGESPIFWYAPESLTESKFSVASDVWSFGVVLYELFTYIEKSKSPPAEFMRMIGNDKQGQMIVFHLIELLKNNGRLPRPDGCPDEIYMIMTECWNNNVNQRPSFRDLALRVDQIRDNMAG
T3 sequence (P52333 783-1124): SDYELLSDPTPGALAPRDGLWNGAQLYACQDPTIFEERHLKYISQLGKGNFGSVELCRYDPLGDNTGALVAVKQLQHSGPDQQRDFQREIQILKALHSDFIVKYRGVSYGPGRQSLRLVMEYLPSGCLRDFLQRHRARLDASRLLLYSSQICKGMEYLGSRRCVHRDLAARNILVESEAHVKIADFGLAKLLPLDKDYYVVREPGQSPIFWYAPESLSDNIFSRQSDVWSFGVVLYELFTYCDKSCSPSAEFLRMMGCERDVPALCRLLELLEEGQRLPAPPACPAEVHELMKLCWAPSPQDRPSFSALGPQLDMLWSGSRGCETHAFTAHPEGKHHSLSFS

Row | SMILES | Ki (JAK1) [nM] | Ki (JAK2) [nM] | Ki (JAK3) [nM] | Ki (TYK2) [nM]
1 | C[C@@H](O)c1nc2cnc3[nH]ccc3c2n1[C@H]1CC[C@@H](n2cncn2)CC1 [Example 653, Cis (R)-1-[1-(4-[1,2,4]triazol-1-yl-cyclohexyl)-1,6-dihydro-1,2,3,5,6-tetraaza-as-indacen-2-yl]-ethanol] | 0.88 | 24.7 | 1.31 | 5.28
2 | N#CCCN1CCC(n2c(CCC3CC3)nc3cnc4[nH]ccc4c32)CC1 [Example 408, 3-{4-[2-(2-Cyclopropyl-ethyl)-6H-1,3,5,6-tetraaza-as-indacen-1-yl]-piperidin-1-yl}-propionitrile] | 15.8 | 43.5 | 52.4 | 255
3 | c1coc(CN2CCC[C@@H](n3cnc4cnc5[nH]ccc5c43)C2)n1 [Example 43, 1-((R)-1-Oxazol-2-ylmethyl-piperidin-3-yl)-1,6-dihydro-1,3,5,6-tetraaza-as-indacene] | 43.1 | 72.9 | 177 | 204
4 | O=C(Cc1nc2cnc3[nH]ccc3c2n1C1CCN(Cc2ccccc2)CC1)NC1CCCC1 [Example 99, 2-[1-(1-Benzyl-piperidin-4-yl)-1,6-dihydro-1,3,5,6-tetraaza-as-indacen-2-yl]-N-cyclopentyl-acetamide] | 4.29 | 16.4 | 10.8 | 586
5 | N#CCC(=O)N1CC(n2cnc3cnc4[nH]ccc4c32)C1 [Example 38, 3-Oxo-3-[3-(6H-1,3,5,6-tetraaza-as-indacen-1-yl)-azetidin-1-yl]propionitrile] | 412 | 315 | 713 | 1970
6 | c1cc2c(ncc3ncn([C@@H]4CCCN(C5COC5)C4)c32)[nH]1 [Example 71, (R)-1-(1-Oxetan-3-yl-piperidin-3-yl]-1,6-dihydro-1,3,5,6-tetraaza-as-indacene] | 264 | 378 | 307 | 1680
7 | CC(=O)NCc1nc2cnc3[nH]ccc3c2n1C1CCN(CC(F)(F)F)CC1 [Example 920, N-{1-[1-(2,2,2-Trifluoro-ethyl)-piperidin-4-yl]-1,6-dihydro-1,3,5,6-tetraaza-as-indacen-2-ylmethyl}-acetamide] | 13 | 93 | 86.5 | 183
8 | O=C(O)[C@H]1C[C@@H](n2cnc3cnc4[nH]ccc4c32)C1 [Example 484, 3-(6H-1,3,5,6-Tetraaza-as-indacen-1-yl)-cyclobutanecarboxylic acid] | 441 | 181 | 323 | 1290
9 | CC(C)CC(=O)NCCc1nc2cnc3[nH]ccc3c2n1C1CCN(CCC#N)CC1 [Example 376, N-(2-{1-[1-(2-Cyano-ethyl)-piperidin-4-yl]-1,6-dihydro-1,3,5,6-tetraaza-as-indacen-2-yl}-ethyl)-3-methyl-butyramide] | 4.15 | 38.6 | 61.9 | 188
10 | N#CCC(=O)N1CCC[C@@H](n2c(CCO)nc3cnc4[nH]ccc4c32)C1 [Example 17, 3-{(R)-3-[2-(2-Hydroxy-ethyl)-6H-1,2,3,5,6-tetraaza-as-indacen-1-yl]-piperidin-1-yl}-3-oxopropionitrile] | 4.04 | 17.1 | 79.1 | 29.8
11 | Cc1nc2cnc3[nH]ccc3c2n1C1CCN(C(=O)NCCC(F)(F)F)CC1 [Example 765, 4-(2-Methyl-6H-1,3,5,6-tetraaza-as-indacen-1-yl)-piperidine-1-carboxylic acid (3,3,3-trifluoro-propyl)-amide] | 275 | 872 | 2210 | 2840
12 | O=C(Cc1nc2cnc3[nH]ccc3c2n1C1CCCOC1)NCCn1ccnc1 (racemic) [Example 975, N-(2-Imidazol-1-yl-ethyl)-2-[1-(tetrahydro-pyran-3-yl)-1,6-dihydro-1,3,5,6-tetraaza-as-indacen-2-yl]-acetamide] | 44.1 | 206 | 211 | 406
13 | CC(CC#N)N1CCC(n2c(CNS(C)(=O)=O)nc3cnc4[nH]ccc4c32)CC1 (racemic) [Example 507, N-{1-[1-(2-Cyano-1-methyl-ethyl)-piperidin-4-yl]-1,6-dihydro-1,3,5,6-tetraaza-as-indacen-2-ylmethyl}-methanesulfonamide] | 11.1 | 40.2 | 69.4 | 102
14 | c1cc2c(ncc3nnn(C4CCCOC4)c32)[nH]1 (single isomer, unassigned) [Example 459, 1-(Tetrahydro-pyran-3-yl)-1,6-dihydro-1,2,3,5,6-pentaaza-as-indacene] | 34 | 59.9 | 282 | 127
15 | N#Cc1nc2cnc3[nH]ccc3c2n1C1CCNCC1 [Example 170, 1-Piperidin-4-yl-1,6-dihydro-1,2,3,5,6-tetraaza-as-indacene-2-carbonitrile] | 92.9 | 334 | 1050 | 956
16 | c1ncc(CN2CCC[C@@H](n3cnc4cnc5[nH]ccc5c43)C2)cn1 [Example 42, 1-((R)-1-Pyrimidin-5-ylmethyl-piperidin-3-yl)-1,6-dihydro-1,3,5,6-tetraaza-as-indacene] | 14.9 | 41 | 93 | 122
17 | O=C(CO)N1CCC(n2cnc3cnc4[nH]ccc4c32)CC1 [Example 437, 2-Hydroxy-1-[4-(6H-1,3,5,6-tetraaza-as-indacen-1-yl)-piperidin-1-yl]-ethanone] | 3.87 | 11.2 | 153 | 55.6
18 | COC1CCCC(n2c(C)nc3cnc4[nH]ccc4c32)C1 (centres unmarked) [Example 889, 1-(3-Methoxy-cyclohexyl)-2-methyl-1,6-dihydro-1,3,5,6-tetraaza-as-indacene] | 36.2 | 337 | 335 | 96.5
19 | O=C(CC1CC1)N1CCC[C@@H](n2cnc3cnc4[nH]ccc4c32)C1 [Example 220, 2-Cyclopropyl-1-[(R)-3-(6H-1,3,5,6-tetraaza-as-indacen-1-yl)-piperidin-1-yl]-ethanone] | 3.31 | 7.43 | 28.3 | 29.3
20 | Cc1nc2cnc3[nH]ccc3c2n1[C@H](C)CO [Example 421, (R)-2-(2-Methyl-6H-1,3,5,6-tetraaza-as-indacen-1-yl)-propan-1-ol] | 251 | 747 | 433 | 2340
21 | CCN1CC[C@@H](n2cnc3cnc4[nH]ccc4c32)[C@@H](F)C1 [Example 523, 1-((3S,4R)-1-Ethyl-3-fluoro-piperidin-4-yl)-1,6-dihydro-1,3,5,6-tetraaza-as-indacene] | 11.2 | 16.7 | 302 | 85.6
22 | C[C@@H](O)c1nc2cnc3[nH]ccc3c2n1C1CCNCC1F (stereo partly drawn) [Example 877, (R)-1-[1-(3-Fluoro-piperidin-4-yl)-1,6-dihydro-1,3,5,6-tetraaza-as-indacen-2-yl]-ethanol] | 1.69 | 37.8 | 10.6 | 10.9
23 | CC(C)(C)OC(=O)N1CCC[C@@H](n2cnc3cnc4[nH]ccc4c32)C1 [Example 349, (R)-3-(6H-1,3,5,6-Tetraaza-as-indacen-1-yl)-piperidine-1-carboxylic acid tert-butyl ester] | 15.3 | 19 | 120 | 113
24 | N#CCCN1CCC[C@@H](n2cnc3cnc4[nH]ccc4c32)C1 [Example 10, 3-[(R)-3-(6H-1,2,3,5,6-Tetraaza-as-indacen-1-yl)-piperidin-1-yl]-propionitrile] | 12.8 | 21.7 | 21.2 | 88.5
25 | CCCc1nc2cnc3[nH]ccc3c2n1C1CCN(CCC#N)CC1 [Example 120, 3-[4-(2-Propyl-6H-1,2,3,5,6-tetraaza-as-indacen-1-yl)-piperidin-1-yl]-propionitrile] | 5.56 | 10.3 | 11.2 | 82.1
26 | O=C(N[C@H]1CC[C@H](n2cnc3cnc4[nH]ccc4c32)CC1)OCC1CC1 [Example 140, Trans[4-(6H-1,2,3,5,6-Tetraaza-as-indacen-1-yl)-cyclohexyl]-carbamic acid cyclopropylmethyl ester] | 5.16 | 17.4 | 88.1 | 78.8
27 | OC1CCCC(n2nnc3cnc4[nH]ccc4c32)C1 (single isomer, unassigned) [Example 551, 3-(6H-1,2,3,5,6-Pentaaza-as-indacen-1-yl)-cyclohexanol] | 13.5 | 19 | 128 | 88.6
28 | CN(CC(F)F)C(=O)NC1CCC(n2cnc3cnc4[nH]ccc4c32)CC1 (centres unmarked) [Example 747, 1-(2,2-difluoro-ethyl)-1-methyl-3-[4-(6H-1,3,5,6-tetraaza-as-indacen-1-yl)-cyclohexyl]-urea] | 4.22 | 11.7 | 52.5 | 72.7
29 | FC1CNCCC1n1nnc2cnc3[nH]ccc3c21 (racemic) [Example 525, 1-(3-Fluoro-piperidin-4-yl)-l,6-dihydro-1,2,3,5,6-pentaaza-as-indacene] | 12.3 | 33.2 | 87.6 | 96.8
